Assay results as given in paper PMC8329197, “Compounds targeting OSBPL7 increase ABCA1-dependent cholesterol efflux preserving kidney function in two models of kidney disease” (Nature Communications, 2021).
Several values for one entry are separate records, joined by “and”; a condition that tells them apart may be missing. Identical values can stand only once.

Columns and labels:
OSBPL7 = tested on: T1, OSBPL7; assay: Competition with ^3H-Cpd K UV cross-linking to FLAG-tagged OSBPL7 in HEK293 cells (immunoprecipitation, autoradiography); format: binding, human; parameters: OSBP7 percentage of inhibition / OSBP7 percentage of inhibition, average: concentration or dose not given beside the values; OSBPL7 Competition %: dose or concentration left out as unconfirmed; details: for OSBP7 percentage of inhibition, average: average of 3; for OSBPL7 Competition %: average(SEM); for OSBP7 percentage of inhibition: single experiments (3 per compound)
T1 construct: Plasmids expressing each as a full-length protein with a C-terminal FLAG tag were obtained; expressed in transfected cells; host or cells: HEK293
Method: Briefly, a plasmid expressing a candidate target of interest fused with a FLAG tag was transfected into HEK293 cells. After 24 h, tritiated compound K at a concentration capable of inducing ABCA1-mediated cholesterol efflux (1.0 μM) was added for 3 h, then the live cells were exposed to UV-light (ʎ = 336 nm) to query potential compound/target cross-linking in situ. Cell lysates were prepared, the expressed protein was then selectively immunoprecipitated using an anti-FLAG antibody coupled to sepharose beads, bound proteins were separated by SDS-PAGE, and two identical blots were prepared and probed by western blot and by autoradiography to detect protein expression and presence or absence of compound crosslinking, respectively. The flow chart of this screen is illustrated in Fig. 2. Figure 2d illustrates the ability of Cpd A and Cpd G to displace tritiated Cpd K from overexpressed and immunoprecipitated OSBPL7. Figure 3b illustrates the use of this assay to detect binding of tritiated Cpd K to overexpressed and immunoprecipitated variants of OSBPL7 containing point mutations in the predicted oxysterol binging pocket of OSBPL7. The advantages of this method are: i. the use of plasmid transfection leads to high expression of each candidate which reduces the likelihood to miss an authentic target for those which may be expressed at low endogenous levels, ii. the interaction of the chemical probe with its target occurs in a relevant biological context (live cells) at a pharmacologically active concentration, and iii. immunoprecipitation allows the expressed protein of interest to be purified from background proteins, substantially improving the signal/noise ratio.

human THP1 macrophages = assay: apoAI-mediated (ABCA1) cholesterol efflux from cholesterol-loaded THP1 macrophages; format: cell-based; parameters: ABCA1 Efflux %: dose or concentration left out as unconfirmed; details: for ABCA1 Efflux active/ inactive / ApoA1-mediated Cholesterol Efflux (%) / ApoA1-mediated Cholesterol Efflux (Fold increase over vehicle control), mean / ApoA1-mediated Cholesterol Efflux (Fold increase over vehicle control): THP1 cells; for ABCA1 Efflux active/ inactive: vs. the effect of T1317; for ABCA1 percentage of induction, average: average of 3; for ABCA1 Efflux %: average(SEM); for ABCA1 percentage of induction: single experiments (3 per compound); for ApoA1-mediated Cholesterol Efflux (%) / ApoA1-mediated Cholesterol Efflux (Fold increase over vehicle control), mean / ApoA1-mediated Cholesterol Efflux (Fold increase over vehicle control): 5 µM; for ApoA1-mediated Cholesterol Efflux (%) / ApoA1-mediated Cholesterol Efflux (Fold increase over vehicle control): single experiments; for Induction of ABCA1 cholesterol efflux: THP1 cells (Fig. 3a, 4a); for ApoA1-mediated Cholesterol Efflux (Fold increase over vehicle control), mean: mean of 3
ABCA1 mRNA = ABCA1 mRNA by quantitative real-time PCR in cholesterol-loaded THP1 macrophages; format: cell-based, human; details: 24 h; for Effect on ABCA1 mRNA: up to 25 μM, THP1 macrophages
Method: RNA was isolated using RNEasy Plus Mini kit (Qiagen). Reverse transcription was performed using qScript cDNA Super Mix (Quantabio) according to the manufacturer’s instructions. Quantitative real-time PCR was performed using TaqMan Fast Universal PCR Master Mix and Taqman gene expression assays (Supplementary Table 7).

normal human fibroblasts = assay: Cholesterol efflux to apoAI in normal human fibroblasts; details: for Cholesterol Efflux (%), Normal Fibroblasts: efflux to apoAI, Cpd H, Cpd J 10 μM, single experiments
[1] = tested on: Tangier (ABCA1-deficient) fibroblasts; assay: Cholesterol efflux in Tangier (ABCA1-deficient) fibroblasts; details: for Cholesterol Efflux (%), Tangier Fibroblasts: ABCA1-deficient, Cpd H, Cpd J 10 μM, single experiments
[2] = target: human cannabinoid 1 receptor (hCB1-R) (Homo sapiens, UniProt P21554); assay: Potency for binding to the CB1R in vitro (Ki); details: human CB1 receptor binding
Col4a3 KO mice = assay: Alport syndrome model: ACR, serum creatinine, BUN, body weight (also vs ramipril); details: individual mouse values
[3] = 8-week old Col4a3 KO mice, 28 days treatment starting at the age of 4 weeks

human cannabinoid 1 receptor (hCB1-R), sequence (P21554 whole entry): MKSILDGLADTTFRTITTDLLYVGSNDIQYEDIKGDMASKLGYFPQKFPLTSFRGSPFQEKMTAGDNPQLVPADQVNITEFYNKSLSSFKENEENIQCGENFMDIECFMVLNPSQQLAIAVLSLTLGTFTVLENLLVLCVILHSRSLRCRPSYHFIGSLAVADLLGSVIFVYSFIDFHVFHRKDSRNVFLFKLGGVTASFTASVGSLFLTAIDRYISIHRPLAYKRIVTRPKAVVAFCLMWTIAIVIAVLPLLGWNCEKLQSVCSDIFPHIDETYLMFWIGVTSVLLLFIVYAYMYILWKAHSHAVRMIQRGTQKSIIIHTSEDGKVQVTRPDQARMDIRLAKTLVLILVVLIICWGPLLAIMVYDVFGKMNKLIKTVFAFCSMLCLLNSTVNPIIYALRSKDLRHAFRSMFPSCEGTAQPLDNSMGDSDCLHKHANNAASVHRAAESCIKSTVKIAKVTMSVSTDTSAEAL

Cn1cccc(NC(=O)c2cc(-c3ccc(Cl)cc3)c(OCC(F)(F)F)cn2)c1=O [Cpd P]
OSBP7 percentage of inhibition, average (OSBPL7): 0% | OSBPL7 Competition % (OSBPL7): 0(0) % | OSBP7 percentage of inhibition (OSBPL7): 0% | ABCA1 Efflux active/ inactive (human THP1 macrophages): Inactive | ABCA1 percentage of induction, average (human THP1 macrophages): 3.67% | ABCA1 Efflux % (human THP1 macrophages): 4(0.9) % | ABCA1 percentage of induction (human THP1 macrophages): 4% and 5% and 2%

CCCCNC(=O)CCc1ccc(-c2cc(C(=O)N[C@@H]3CCCC[C@H]3O)cnc2OCC2CC2)cc1 [Cpd N]
OSBP7 percentage of inhibition, average (OSBPL7): 38% | OSBPL7 Competition % (OSBPL7): 38(9.5) % | ABCA1 Efflux active/ inactive (human THP1 macrophages): Inactive | ABCA1 percentage of induction, average (human THP1 macrophages): 24% | ABCA1 Efflux % (human THP1 macrophages): 24(5.0) %

Cc1c(C(=O)NN2CCCCC2)nn(-c2ccc(Cl)cc2Cl)c1-c1ccc(Cl)cc1 [rimonabant, reference compound]
OSBP7 percentage of inhibition, average (OSBPL7): 0% | OSBPL7 Competition % (OSBPL7): 0(0) % | OSBP7 percentage of inhibition (OSBPL7): 0% | ApoA1-mediated Cholesterol Efflux (%) (human THP1 macrophages): 3.95% and 2.4% and 1.2% | Induction of ABCA1 cholesterol efflux (human THP1 macrophages): did not induce ABCA1 cholesterol efflux | ABCA1 Efflux active/ inactive (human THP1 macrophages): Inactive | ABCA1 percentage of induction, average (human THP1 macrophages): 0% | ABCA1 Efflux % (human THP1 macrophages): 0(0) % | ABCA1 percentage of induction (human THP1 macrophages): 0%

O=C(N[C@@H]1CCCC[C@H]1O)c1cnc(OCC(F)(F)F)c(-c2ccc(Cl)cc2)c1 [Cpd J]
Effect on ABCA1 mRNA (ABCA1 mRNA): no effect | OSBP7 percentage of inhibition, average (OSBPL7): 40% | OSBPL7 Competition % (OSBPL7): 40(12.2) % | Cholesterol efflux to apoAI from normal fibroblasts (normal human fibroblasts): increase cholesterol efflux to apoAI from normal | Cholesterol Efflux (%), Normal Fibroblasts (normal human fibroblasts): 5.75% and 6.18% and 6.91% | Cholesterol efflux to apoAI from ABCA1-deficient fibroblasts [1]: not from ABCA1-deficient fibroblasts | Cholesterol Efflux (%), Tangier Fibroblasts [1]: 1.8% and 2.06% and 2.65% | Ki [2]: 0.0124 ± 0.0067 µM | ABCA1 percentage of induction, average (human THP1 macrophages): 100% | ABCA1 Efflux % (human THP1 macrophages): 100(15.0) % | ABCA1 percentage of induction (human THP1 macrophages): 83% and 130% and 87%

Cc1c(C(=O)c2cccc3ccccc23)c2cccc3c2n1[C@H](CN1CCOCC1)CO3 [WIN55-212-2, reference compound]
ApoA1-mediated Cholesterol Efflux (Fold increase over vehicle control), mean (human THP1 macrophages): 0.882 fold | ApoA1-mediated Cholesterol Efflux (%) (human THP1 macrophages): 2.57% and 2.5% and 1.3% | ApoA1-mediated Cholesterol Efflux (Fold increase over vehicle control) (human THP1 macrophages): 0.895 fold and 1.016 fold and 0.735 fold | Induction of ABCA1 cholesterol efflux (human THP1 macrophages): inactive

CCOC(=O)C(CCc1ccccc1)NC(C)C(=O)N1C(C(=O)O)CC2CCCC21 (stereo not drawn) [Ramp]
BUN (Col4a3 KO mice; [3]): 33 mg/dL and 30 mg/dL and 43 mg/dL and 36 mg/dL and 26 mg/dL and 46 mg/dL and 42 mg/dL and 39 mg/dL | Serum Creatinine (Col4a3 KO mice; [3]): 1.99 µg/mL and 0.12 µg/mL and 2 µg/mL and 3.6 µg/mL and 0.9 µg/mL and 0.28 µg/mL and 1.66 µg/mL

O=C(Nc1cnc(OCC(F)(F)F)c(-c2ccc(Cl)cc2)c1)c1cccnc1 [Cpd M]
OSBP7 percentage of inhibition, average (OSBPL7): 98% | OSBPL7 Competition % (OSBPL7): 98(5.2) % | OSBP7 percentage of inhibition (OSBPL7): 107% and 97% and 89% | Ki [2]: > 10 µM | ABCA1 percentage of induction, average (human THP1 macrophages): 113% | ABCA1 Efflux % (human THP1 macrophages): 133(42.5) %

CCOC(=O)[C@H](CCc1ccccc1)N[C@@H](C)C(=O)N1[C@H](C(=O)O)C[C@@H]2CCC[C@@H]21 [ramipril, reference compound]
Albumin to Creatinine ratio (Col4a3 KO mice; spot urines, 8-week old Col4a3 KO mice treated from the age of 4 weeks, listed as Ram): 31.85 mg Alb. /mg Cre and 41.0281 mg Alb. /mg Cre and 31.514 mg Alb. /mg Cre and 21.7026 mg Alb. /mg Cre and 31.192 mg Alb. /mg Cre

O=S(=O)(c1ccccc1)N(CC(F)(F)F)c1ccc(C(O)(C(F)(F)F)C(F)(F)F)cc1 [T1317, reference compound]
Upregulation of ABCA1 mRNA (ABCA1 mRNA; cholesterol-loaded THP1 macrophages): ~ 5 fold | Cholesterol efflux to apoAI from normal fibroblasts (normal human fibroblasts): increase cholesterol efflux to apoAI from normal | Cholesterol Efflux (%), Normal Fibroblasts (normal human fibroblasts): 5.16% and 5.7% and 5.82% | Cholesterol efflux to apoAI from ABCA1-deficient fibroblasts [1]: not from ABCA1-deficient fibroblasts | Cholesterol Efflux (%), Tangier Fibroblasts [1]: 2.04% and 2.39% and 2.47%

O=C(N[C@@H]1CCCC[C@H]1O)c1cnc(OCC2CC2)c(-c2ccc(Cl)cc2)c1 [Cpd H]
Effect on ABCA1 mRNA (ABCA1 mRNA): no effect | OSBP7 percentage of inhibition, average (OSBPL7): 55% | OSBPL7 Competition % (OSBPL7): 55(5.0) % | OSBP7 percentage of inhibition (OSBPL7): 49% and 51% and 65% | Cholesterol efflux to apoAI from normal fibroblasts (normal human fibroblasts): increase cholesterol efflux to apoAI from normal | Cholesterol Efflux (%), Normal Fibroblasts (normal human fibroblasts): 3.97% and 4.44% and 4.67% | Cholesterol efflux to apoAI from ABCA1-deficient fibroblasts [1]: not from ABCA1-deficient fibroblasts | Cholesterol Efflux (%), Tangier Fibroblasts [1]: 1.75% and 1.88% and 1.89% | Ki [2]: 0.0114 ± 0.0045 µM | EC50 (human THP1 macrophages; THP-1, apoAI-dependent cholesterol efflux from human THP1 cells): 0.12 µM | ABCA1 percentage of induction, average (human THP1 macrophages): 106% | ABCA1 Efflux % (human THP1 macrophages): 106(6.8) % | ABCA1 percentage of induction (human THP1 macrophages): 112% and 92% and 113%

CCCCC/C=C\C/C=C\C/C=C\C/C=C\CCCC(=O)NCCCl [ACEA, arachidonyl choloroethylamine, reference compound]
ApoA1-mediated Cholesterol Efflux (Fold increase over vehicle control), mean (human THP1 macrophages): 0.962 fold | ApoA1-mediated Cholesterol Efflux (%) (human THP1 macrophages): 3% and 2.5% and 1.4% | ApoA1-mediated Cholesterol Efflux (Fold increase over vehicle control) (human THP1 macrophages): 1.047 fold and 1.044 fold and 0.796 fold | Induction of ABCA1 cholesterol efflux (human THP1 macrophages): inactive

Cc1cncc(-c2cc(NC(=O)c3cccnc3)cnc2OCC(F)(F)F)c1 [Cpd S]
OSBP7 percentage of inhibition, average (OSBPL7): 0.333% | OSBPL7 Competition % (OSBPL7): 0(0.3) % | OSBP7 percentage of inhibition (OSBPL7): 0% and 1% | ABCA1 Efflux active/ inactive (human THP1 macrophages): Inactive | ABCA1 percentage of induction, average (human THP1 macrophages): 2.67% | ABCA1 Efflux % (human THP1 macrophages): 3(0.8) % | ABCA1 percentage of induction (human THP1 macrophages): 1% and 3% and 4%

Cc1cc(-c2cc(NC(=O)c3cccnc3)cnc2OCC(F)(F)F)ccn1 [Cpd R]
OSBP7 percentage of inhibition, average (OSBPL7): 17% | OSBPL7 Competition % (OSBPL7): 17(5.0) % | ABCA1 Efflux active/ inactive (human THP1 macrophages): Inactive | ABCA1 percentage of induction, average (human THP1 macrophages): -10% | ABCA1 Efflux % (human THP1 macrophages): -10(5) %

O=C(N[C@H]1CCCC[C@H]1O)c1cnc(OCC(F)(F)F)c(-c2ccc(Cl)c(Cl)c2)c1 [Cpd L]
OSBP7 percentage of inhibition, average (OSBPL7): 53% | OSBPL7 Competition % (OSBPL7): 53(4.7) % | OSBP7 percentage of inhibition (OSBPL7): 55% and 44% and 60% | Ki [2]: 7 µM | ABCA1 percentage of induction, average (human THP1 macrophages): 104% | ABCA1 Efflux % (human THP1 macrophages): 104(18.8) % | ABCA1 percentage of induction (human THP1 macrophages): 94% and 77% and 140%

O=C(N[C@@H]1CCCOC1=O)c1cc(-c2ccc(Cl)cc2)c(OCC(F)(F)F)cn1 [Cpd Q]
OSBP7 percentage of inhibition, average (OSBPL7): 8% | OSBPL7 Competition % (OSBPL7): 8(2.2) % | OSBP7 percentage of inhibition (OSBPL7): 12% and 6% and 5% | ABCA1 Efflux active/ inactive (human THP1 macrophages): Inactive | ABCA1 percentage of induction, average (human THP1 macrophages): 2% | ABCA1 Efflux % (human THP1 macrophages): 2(0.6) % | ABCA1 percentage of induction (human THP1 macrophages): 1% and 2% and 3%
